Results taken from patent US11952349B2, “Anti-cancer nuclear hormone receptor-targeting compounds” (Nuvation Bio Inc., priority 2019, dated 2024).
Positions count from the first letter of the chain named. Where two headings read alike, the source gives them in different places.

Experiments:
[1] = test system: 22Rv1 cells; test: Cell viability assay (CellTiterGlo, 6 days) 22Rv1; assay type: cell-based; conditions: Homo sapiens, 22Rv1, 144 h, read-out: 22RV1
Experimental: (§1) Cell viability assay: LNCap, 22Rv1, and T47D cells were seeded at a density of 1500-2000 cells/well in 96 well plates, and a ‘T0’ (timepoint 0) was included along with the assay plate. The plates were then incubated at 37° C., 5% CO2 in a cell culture incubator overnight. On the next day, the ‘T0’ plate was assayed using CellTiterGlo (Promega, Inc) according to the manufacturer's instructions. The appropriate compounds were diluted in DMSO and added to the assay plate (final DMSO concentration of 0.2%) on the next day. The assay plates were incubated for 6 days at 37° C., 5% CO2. After the incubation period, the plates were assayed using CellTiterGlo (Promega, Inc) according to the manufacturer's instructions and luminescence was read on the EnVision plate reader. Inhibition the tested compounds was determined by the following formula: Inhibition rate (%)=(1−(RLU compound−RLU day0)/(RLU control−RLU day0))*100%. GraphPadPrism was used to analyze the data and determine absolute IC50 values.

[2] = test system: LNCap cells; test: Cell viability assay (CellTiterGlo, 6 days) LNCap; assay type: cell-based; conditions: Homo sapiens, 144 h
Experimental: as §1

[3] = target: Human recombinant PARP1 (Homo sapiens, UniProt P09874); test: RBC HotSpot PARP1 assay (radioisotope-based filter binding); assay type: biochemical
Experimental: (§2) The following methods are for evaluating the in vitro biology properties of the test articles. • a. RBC HotSpot Poly(ADP-ribose) Polymerases 1 (PARP1) and Poly(ADP-ribose) Polymerases 2 (PARP2) Assays: The assay was conducted at Reaction Biology Corporation (RBC; Malvern, PA). The assay principle is radioisotope-based filter binding assay where incorporation of radioisotope-labeled NAD^+ into the substrate captured on filter is detected after washout free NAD^+. Data were analyzed using Excel and GraphPad Prism software for IC50 curve fits. Each assay was conducted with PJ34 as a positive control. PARP1 assay: Human recombinant PARP1 at a final concentration of 2.5 nM was combined with histone H4 (20 μM) and test articles at various concentrations in reaction buffer (50 mM Tris-HCL, pH 8.0, 50 mM NaCl, 10 mM MgCl2, 1 mM DTT, 1% DMSO, and 20 μg/mL activated DNA). The solution was inoculated for 20 min at room temperature and the reaction initiated by adding [adenylate-^32P]-Nicotinamide Adenine Dinucleotide, ^32P-NAD^+ at a final concentration of 10 μM. After incubation for 2 hrs at room temperature, the reaction mixture was filtered and washed with 0.75% phosphoric acid for radioactivity detection. • ii. PARP2 assay: Human recombinant PARP2 at a final concentration of 2.5 nM was combined with histone H3 (20 μM) and test articles at various concentrations in reaction buffer (50 mM Tris-HCL, pH 8.0, 50 mM NaCl, 10 mM MgCl2, 1 mM DTT, 1% DMSO, and 20 μg/mL activated DNA). The solution was inoculated for 20 min at room temperature and the reaction was initiated by adding [adenylate-^32P]-Nicotinamide Adenine Dinucleotide, ^32P-NAD^+ at a final concentration of 10 μM. After incubation for 2 hrs at room temperature, the reaction mixture was filtered and washed with 0.75% phosphoric acid for radioactivity detection. • b. AR binding assay: AR in LNCaP cytosol was used for determining the binding affinity of test articles and the reference compound—progesterone (Sigma, Cat: E2785, St. Louis, MO). IC50 s were determined using 8 concentrations/compound. Cytosol is plated at 200 μg/well (100 μL) into a 96-well conical polypropylene plate (Agilent, Cat: 5042-1385, Santa Clara, CA) and mixed with 3 μL of test compound. After adding 100 μL of ^3H-methyltrienolone (PerkinElmer, Cat: NET590250UC, San Jose, CA), the plate was sealed and shaken at 300 rpm at 4° C. for 24 hours. Post incubation, 100 μL of radioligand adsorption buffer containing 10 mM Tris-HCl, pH 7.4; 1.5 mM EDTA; 1 mM DTT; 0.25% charcoal; 0.0025% dextran was added to individual wells. Plate was shaken for 15 min at 4° C. followed by centrifugation at 3000 rpm for 30 min at 4° C. 150 μL of supernatant is transferred into scint-tube (PerkinElmer, Cat: 6000192) and mixed with 2 mL of Ultima Gold Cocktail (PerkinElmer, Cat: 6013329). Radioactivity is counted using a TriCarb 2910 TR scintillation counter (PerkinElmer). Inhibition of the radioactivity by test articles was calculated using the equation below: % Inhibition=(1−(Assay well−Average_LC)/(Average_HC−Average_LC))×100%. • IC50 values (Table 6) were calculated and graphed using the model “log(inhibitor) vs. response—Variable slope” included in GraphPad Prism 5 (San Diego, CA). The Ki values were further calculated using the equation below where [L] is the radioligand concentration (1 nM) used in this study. Kd value was 0.332 nM. Ki=IC50/(1+[L]/Kd) • c. AR transactivation: Human AR cloned into a CMV vector backbone is used for the transactivation study. HEK-293 cells are plated at 80,000 cells per well of a 24 well plate in DME+5% csFBS. Twenty four hours later, the cells are transfected using Lipofectamine (Invitrogen, Carlsbad, CA) with 0.25 μg GRE-LUC, 0.01 μg CMV-LUC (renilla luciferase) and 25 ng of the AR in OPTIMEM medium. The cells are treated 24 hrs after transfection with various ligands (10^−12 to 10^−5 M final concentrations) and luciferase assay performed 48 hours after transfection. […]

[4] = target: Human recombinant PARP2 (Homo sapiens, UniProt Q9UGN5); test: RBC HotSpot PARP2 assay (radioisotope-based filter binding); assay type: biochemical
Experimental: as §2

[5] = target: T1, AR, cytosol from LnCaP cells (Homo sapiens, UniProt P10275, T878A); test: AR binding assay, 3H-R1881 (Biological Example 2)
T1 construct: AR in LNCaP cytosol was used; endogenous in cells; host or cells: LNCaP cells (cytosol)
T1 sequence (P10275 1-920 T878A): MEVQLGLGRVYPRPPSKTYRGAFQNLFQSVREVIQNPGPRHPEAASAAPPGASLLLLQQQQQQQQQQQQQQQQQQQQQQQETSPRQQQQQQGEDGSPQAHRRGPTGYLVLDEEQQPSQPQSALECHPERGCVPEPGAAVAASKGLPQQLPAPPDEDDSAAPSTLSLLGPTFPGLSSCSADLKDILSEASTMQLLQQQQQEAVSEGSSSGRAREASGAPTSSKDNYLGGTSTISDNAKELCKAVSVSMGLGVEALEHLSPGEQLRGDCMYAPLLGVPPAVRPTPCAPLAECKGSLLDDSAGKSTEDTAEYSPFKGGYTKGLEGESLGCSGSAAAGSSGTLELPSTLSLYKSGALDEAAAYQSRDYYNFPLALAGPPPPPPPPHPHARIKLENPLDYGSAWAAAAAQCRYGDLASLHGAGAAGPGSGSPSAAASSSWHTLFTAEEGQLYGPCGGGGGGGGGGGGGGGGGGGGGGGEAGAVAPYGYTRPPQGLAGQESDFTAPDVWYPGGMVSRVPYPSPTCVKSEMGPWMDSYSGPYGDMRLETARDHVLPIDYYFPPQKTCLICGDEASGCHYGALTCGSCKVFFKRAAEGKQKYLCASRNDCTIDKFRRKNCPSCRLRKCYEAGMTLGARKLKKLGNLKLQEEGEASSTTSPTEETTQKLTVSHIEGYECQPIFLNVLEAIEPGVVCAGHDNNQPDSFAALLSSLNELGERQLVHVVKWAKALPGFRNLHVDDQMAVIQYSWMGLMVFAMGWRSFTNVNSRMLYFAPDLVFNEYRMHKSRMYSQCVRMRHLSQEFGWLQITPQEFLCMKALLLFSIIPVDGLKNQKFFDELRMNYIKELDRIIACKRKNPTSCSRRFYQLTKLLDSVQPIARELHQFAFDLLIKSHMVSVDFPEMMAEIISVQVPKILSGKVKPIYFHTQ
Experimental: AR binding assay: To assess AR binding, test compound (top dose […], 4 fold serial dilution, 8 point dose response) and control (progesterone) were transferred to the assay plate. Cytosol from LnCaP cells was added to the plate, followed by addition of radiolabeled ^3H-R1881 at a final concentration of 1 nM. The plate was sealed, and the reaction was incubated at 300 rpm at 4° C. for 24 hrs. Radioligand absorption buffer (10 mM Tris-HCl, pH 7.4; 1.5 mM EDTA; 1 mM DTT; 0.25% charcoal; 0.0025% dextran) was then added to the plate, mixed, and incubated at 4° C. for 15 minutes. The plate was then centrifuged at 3000 rpm for 30 minutes at 4° C. The supernatant was transferred to the scint-tube and Tri-carb was used for scintillation counting. The data was analyzed using GraphPadPrism v5.0 and binding IC50 was determined as the concentration where 50% inhibition of radioligand binding was observed.

[6] = target: T2, full-length androgen receptor (Homo sapiens, UniProt P10275); test: AR antagonism assay (HEK293, testosterone 1 nM, Steady-glo); assay type: cell-based
T2 construct: HEK293 cells stably expressing the full-length androgen receptor; expressed in transfected cells
T2 sequence (P10275 1-920): T1 sequence (P10275 1-920 T878A) with A878T
Experimental: AR antagonism assay: To evaluate AR antagonist activity, test compound was added to the assay plate (top dose 10 μM, 3 fold serial dilution, 10 point dose response). HEK293 cells stably expressing the full-length androgen receptor were seeded at a density of 20000 cells/well in the assay plate. The assay plate was then incubated at room temperature for 10 minutes and at 37° C., 5% CO2 for 20 minutes. Testosterone was added to the assay plate at 1 nM final concentration and the assay plate was incubated at 37° C., 5% CO2 for 20 h. After the incubation period, Steady-glo was added to the assay plate and mixed at room temperature for 20 minutes on an orbital shaker, before reading out on the EnVision plate reader.

Sequence of Human recombinant PARP2 (Q9UGN5 whole entry): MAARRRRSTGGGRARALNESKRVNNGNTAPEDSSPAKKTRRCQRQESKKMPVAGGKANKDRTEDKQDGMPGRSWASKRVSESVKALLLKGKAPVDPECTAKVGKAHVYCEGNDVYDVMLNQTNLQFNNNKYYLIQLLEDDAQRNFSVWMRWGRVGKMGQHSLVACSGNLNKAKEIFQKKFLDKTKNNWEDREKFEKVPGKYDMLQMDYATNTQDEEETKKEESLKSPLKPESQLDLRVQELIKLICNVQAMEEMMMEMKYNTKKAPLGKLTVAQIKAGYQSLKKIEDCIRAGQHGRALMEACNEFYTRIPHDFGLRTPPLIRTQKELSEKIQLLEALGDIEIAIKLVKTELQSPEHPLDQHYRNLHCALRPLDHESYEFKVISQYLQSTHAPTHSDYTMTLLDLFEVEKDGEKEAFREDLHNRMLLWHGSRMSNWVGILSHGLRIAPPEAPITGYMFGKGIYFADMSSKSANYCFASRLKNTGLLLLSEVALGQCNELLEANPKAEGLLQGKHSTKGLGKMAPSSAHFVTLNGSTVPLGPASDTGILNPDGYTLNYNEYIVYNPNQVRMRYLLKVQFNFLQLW
Sequence of Human recombinant PARP1 (P09874 whole entry): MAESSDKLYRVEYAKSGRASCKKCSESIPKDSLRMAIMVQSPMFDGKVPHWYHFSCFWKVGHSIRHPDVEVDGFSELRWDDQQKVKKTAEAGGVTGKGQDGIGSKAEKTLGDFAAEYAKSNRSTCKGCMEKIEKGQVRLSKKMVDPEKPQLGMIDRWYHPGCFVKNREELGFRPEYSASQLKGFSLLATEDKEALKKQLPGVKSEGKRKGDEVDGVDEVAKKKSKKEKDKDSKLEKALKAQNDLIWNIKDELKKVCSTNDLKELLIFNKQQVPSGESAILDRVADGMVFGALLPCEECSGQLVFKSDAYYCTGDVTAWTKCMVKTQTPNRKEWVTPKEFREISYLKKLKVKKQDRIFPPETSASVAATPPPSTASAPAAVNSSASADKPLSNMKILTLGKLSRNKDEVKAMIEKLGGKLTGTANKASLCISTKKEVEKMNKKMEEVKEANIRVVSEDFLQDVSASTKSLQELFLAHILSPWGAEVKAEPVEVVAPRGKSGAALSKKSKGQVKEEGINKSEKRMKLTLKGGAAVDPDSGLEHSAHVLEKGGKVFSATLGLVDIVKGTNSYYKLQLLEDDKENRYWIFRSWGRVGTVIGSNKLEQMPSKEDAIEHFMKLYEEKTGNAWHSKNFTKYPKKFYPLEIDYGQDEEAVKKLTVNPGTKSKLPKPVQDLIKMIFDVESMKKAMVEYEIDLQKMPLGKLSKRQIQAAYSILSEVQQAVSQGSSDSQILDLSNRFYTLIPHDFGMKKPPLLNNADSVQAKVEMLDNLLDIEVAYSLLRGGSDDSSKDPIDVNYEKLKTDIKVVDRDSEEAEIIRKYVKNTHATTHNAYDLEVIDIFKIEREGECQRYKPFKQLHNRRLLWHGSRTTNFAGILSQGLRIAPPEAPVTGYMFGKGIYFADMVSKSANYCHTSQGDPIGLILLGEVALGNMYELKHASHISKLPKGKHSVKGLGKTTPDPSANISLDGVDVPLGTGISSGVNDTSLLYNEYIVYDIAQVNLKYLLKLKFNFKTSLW

In the case of `C[C@]12C[C@H](CCCCCC(=O)N3CCN(C(=O)c4cc(Cc5n[nH]c(=O)c6ccccc56)ccc4F)CC3)C3=C4CCC(=O)C=C4CC[C@H]3[C@@H]1CCC2=O` [Compound 1370, (8S,11S,13S,14S)-11-(6-(4-(2-fluoro-5-((4-oxo-3,4-dihydrophthalazin-1-yl)methyl)benzoyl)piperazin-1-yl)-6-oxohexyl)-13-methyl-7,8,11,12,13,14,15,16-octahydro-1H-cyclopenta[a]phenanthrene-3,17(2H,6H)-dione], the IC50 [1] is reported as 0.1 to 1 µM, the IC50 ([2]; Table 7) is reported as 0.1 to 1 µM and the IC50 [3] is reported as less than 0.001 µM. The IC50 [4] was less than 0.001 µM.

With `C[C@]12CC[C@H]3[C@@H](CCC4=CC(=O)CC[C@@]43C)[C@@H]1CC[C@@H]2C(=O)COCCCCCC(=O)NCCOCCOCC(=O)N1CCN(C(=O)c2cc(Cc3n[nH]c(=O)c4ccccc34)ccc2F)CC1` [Compound 1392] the IC50 ([2]; Table 8) was 1 to 10 µM, the IC50 ([3]; Table 9, read-out: PARP1) was 0.001 to 0.01 µM and the IC50 ([4]; Table 9, read-out: PARP2) was less than 0.001 µM.

In the case of `C[C@@H]1C[C@@]2(C)[C@@H](CC[C@@H]3[C@@H]2CC[C@]2(C)[C@@H](OCCCCCC(=O)N4CCN(C(=O)c5cc(Cc6n[nH]c(=O)c7ccccc67)ccc5F)CC4)CC[C@@H]32)CC1=O` [Compound 1402, 4-(4-fluoro-3-(4-(6-((2R,5S,8R,9S,10S,13S,14S,17S)-2,10,13-trimethyl-3-oxohexadecahydro-1H-cyclopenta[a]phenanthren-17-yloxy)hexanoyl)piperazine-1-carbonyl)benzyl)phthalazin-1(2H)-one], the IC50 ([3]; Table 9, read-out: PARP1) is reported as 0.01 to 0.1 µM and the IC50 ([4]; Table 9, read-out: PARP2) is reported as 0.001 to 0.01 µM.

In the case of `C[C@]12C=CC(=O)C[C@@H]1CC[C@@H]1[C@@H]2CC[C@]2(C)[C@@H](OCCCCCC(=O)N3CCN(C(=O)c4cc(Cc5n[nH]c(=O)c6ccccc56)ccc4F)CC3)CC[C@@H]12` [Compound 1410, 4-(3-(4-(6-((5S,8R,9S,10R,13S,14S,17S)-10,13-dimethyl-3-oxo-4,5,6,7,8,9, 10,11,12,13,14,15,16,17-tetradecahydro-3H-cyclopenta[a]phenanthren-17-yloxy)hexanoyl)piperazine-1-carbonyl)-4-fluorobenzyl)phthalazin-1(2H)-one], the IC50 ([1]; Table 7, cell viability, 6 days) is reported as 0.1 to 1 µM, the IC50 ([2]; Table 7) is reported as 0.1 to 1 µM and the IC50 [5] is reported as 0.01 to 0.1 µM. It also gave an IC50 [6] of 0.1 to 1 µM.
